ChEMBL document CHEMBL5579824, “Novel Hsp90-Targeting PROTACs: Enhanced synergy with cisplatin in combination therapy of cervical cancer” (Eur J Med Chem, 2024)
Calls of active or inactive are those of the source. The rule behind the calls is not given here.

Experiments:
SiHa [1] = assay: Synergistic antiproliferative activity against human SiHa cells assessed as combination index at 1 uM incubated for 72 hrs in presence of 0.32 uM cisplatin by CCK-8 assay; format: functional
SiHa [2] = assay: Synergistic antiproliferative activity against human SiHa cells assessed as combination index at 10 uM incubated for 72 hrs in presence of 3.16 uM cisplatin by CCK-8 assay; format: functional
SiHa [3] = assay: Synergistic antiproliferative activity against human SiHa cells assessed as combination index at 0.05 uM incubated for 72 hrs in presence of 31.62 uM cisplatin by CCK-8 assay; format: functional
SiHa [4] = assay: Antitumor activity against human SiHa cells xenografted in BALB/c nude mouse assessed as tumor growth inhibition at 2 mg/kg, ip; format: functional, organism-based
SiHa [5] = assay: Synergistic antiproliferative activity against human SiHa cells assessed as combination index at 10 uM incubated for 72 hrs in presence of 0.01 uM cisplatin by CCK-8 assay; format: functional
SiHa [6] = assay: Synergistic antiproliferative activity against human SiHa cells assessed as combination index at 5 uM incubated for 72 hrs in presence of 0.32 uM cisplatin by CCK-8 assay; format: functional
SiHa [7] = assay: Induction of apoptosis in human SiHa cells assessed as early apoptotic cells at 0.05 uM incubated after 48 hrs by annexin V-FITC/PI staining based flow cytometry (reference value: 2.05 %); format: functional
SiHa [8] = assay: Synergistic antiproliferative activity against human SiHa cells assessed as combination index at 0.5 uM incubated for 72 hrs in presence of 3.16 uM cisplatin by CCK-8 assay; format: functional
SiHa [9] = assay: Induction of cell cycle arrest in human SiHa cells assessed as accumulation of cells at S pahse at 0.05 uM incubated after 48 hrs by PI staining based flow cytometry (reference value: 8.51 %); format: functional
SiHa [10] = assay: Induction of cell cycle arrest in human SiHa cells assessed as accumulation of cells at G2/M pahse at 10 uM incubated after 48 hrs by PI staining based flow cytometry (reference value: 7.37 %); format: functional

`CC1(C)CC(=O)c2c(C(F)(F)F)nn(-c3ccc(C(N)=O)c(N[C@H]4CC[C@H](OC(=O)CNC(=O)CCCCCCCNc5cccc6c5CN(C5CCC(=O)NC5=O)C6=O)CC4)c3)c2C1` (stereo not given in full) was tested, and the CI (SiHa [1]) was 0.2, the CI (SiHa [2]) was 1.45 and the CI (SiHa [3]) was 0.25. The TGI (SiHa [4]) was “Active”, the CI (SiHa [5]) was 2.19 and the CI (SiHa [6]) was 0.95. For the same compound, the Activity (SiHa [7]) was 2.44%, the CI (SiHa [8]) was 0.14 and the Activity (SiHa [9]) was 10.84%. The Activity (SiHa [10]) was 24.06%.
